ChEMBL document CHEMBL1221241, “Discovery of tetrahydroisoquinoline (THIQ) derivatives as potent and orally bioavailable LFA-1/ICAM-1 antagonists” (Bioorg Med Chem Lett, 2010)

Experiments:
[1] = molecular target: Intercellular adhesion molecule (ICAM-1), Integrin alpha-L/beta-2 (Homo sapiens, UniProt P05107+P05362+P20701); assay: Inhibition of LFA1/ICAM1 interaction in human Hut-78 cells by cell migration assay; type: cell-based
[2] = Half life in Sprague-Dawley rat at 5 mg/kg, iv; type: ADME, organism-based; design: dose 5 mg/kg, route intravenous; conditions: in vivo
[3] = AUC in Sprague-Dawley rat at 5 mg/kg, iv; type: ADME, organism-based; design: dose 5 mg/kg, route intravenous; conditions: plasma
[4] = Clearance in Sprague-Dawley rat at 5 mg/kg, iv; type: ADME, organism-based; design: dose 5 mg/kg, route intravenous; conditions: in vivo
[5] = Oral bioavailability in Sprague-Dawley rat at 100 mg/kg; type: ADME, organism-based; conditions: in vivo
[6] = Cmax in C57BL/6 mouse at 100 mg/kg, po; type: ADME, organism-based; design: dose 100 mg/kg, route oral; conditions: in vivo
[7] = AUClast in C57BL/6 mouse at 100 mg/kg, po; type: ADME, organism-based; design: time 0 - last, dose 100 mg/kg, route oral; conditions: plasma
[8] = Tmax in C57BL/6 mouse at 100 mg/kg, po; type: ADME, organism-based; design: dose 100 mg/kg, route oral; conditions: in vivo
[9] = AUClast in C57BL/6 mouse at 20 mg/kg, po; type: ADME, organism-based; design: time 0 - last, dose 20 mg/kg, route oral; conditions: plasma
[10] = Oral bioavailability in C57BL/6 mouse at 20 mg/kg; type: ADME, organism-based; conditions: in vivo
[11] = Cmax in C57BL/6 mouse at 20 mg/kg, po; type: ADME, organism-based; design: dose 20 mg/kg, route oral; conditions: in vivo
[12] = Tmax in C57BL/6 mouse at 20 mg/kg, po; type: ADME, organism-based; design: dose 20 mg/kg, route oral; conditions: in vivo
[13] = Oral bioavailability in Sprague-Dawley rat at 20 mg/kg; type: ADME, organism-based; conditions: in vivo
[14] = AUClast in Sprague-Dawley rat at 20 mg/kg, po; type: ADME, organism-based; design: time 0 - last, dose 20 mg/kg, route oral; conditions: plasma
[15] = Tmax in Sprague-Dawley rat at 20 mg/kg, po; type: ADME, organism-based; design: dose 20 mg/kg, route oral; conditions: in vivo
[16] = Cmax in Sprague-Dawley rat at 20 mg/kg, po; type: ADME, organism-based; design: dose 20 mg/kg, route oral; conditions: in vivo
[17] = Apparent permeability of the compound from apical to basolateral side in MDCK cells; type: ADME, cell-based, Canis lupus familiaris; conditions: dog
[18] = Apparent permeability of the compound from basolateral to apical side in MDCK cells; type: ADME, cell-based, Canis lupus familiaris; conditions: dog
Mus musculus [19] = assay: Reduction of neutrophil migration in po dosed thioglycollate-induced C57BL/6 mouse peritonitis model administered 15 mins before thioglycollate challenge measured after 4 hrs; type: functional
Mus musculus [20] = assay: Reduction of neutrophil migration in iv dosed thioglycollate-induced C57BL/6 mouse peritonitis model administered 15 mins before thioglycollate challenge measured after 4 hrs; type: functional

Chain of Intercellular adhesion molecule (ICAM-1), Integrin alpha-L/beta-2 (P20701 whole entry): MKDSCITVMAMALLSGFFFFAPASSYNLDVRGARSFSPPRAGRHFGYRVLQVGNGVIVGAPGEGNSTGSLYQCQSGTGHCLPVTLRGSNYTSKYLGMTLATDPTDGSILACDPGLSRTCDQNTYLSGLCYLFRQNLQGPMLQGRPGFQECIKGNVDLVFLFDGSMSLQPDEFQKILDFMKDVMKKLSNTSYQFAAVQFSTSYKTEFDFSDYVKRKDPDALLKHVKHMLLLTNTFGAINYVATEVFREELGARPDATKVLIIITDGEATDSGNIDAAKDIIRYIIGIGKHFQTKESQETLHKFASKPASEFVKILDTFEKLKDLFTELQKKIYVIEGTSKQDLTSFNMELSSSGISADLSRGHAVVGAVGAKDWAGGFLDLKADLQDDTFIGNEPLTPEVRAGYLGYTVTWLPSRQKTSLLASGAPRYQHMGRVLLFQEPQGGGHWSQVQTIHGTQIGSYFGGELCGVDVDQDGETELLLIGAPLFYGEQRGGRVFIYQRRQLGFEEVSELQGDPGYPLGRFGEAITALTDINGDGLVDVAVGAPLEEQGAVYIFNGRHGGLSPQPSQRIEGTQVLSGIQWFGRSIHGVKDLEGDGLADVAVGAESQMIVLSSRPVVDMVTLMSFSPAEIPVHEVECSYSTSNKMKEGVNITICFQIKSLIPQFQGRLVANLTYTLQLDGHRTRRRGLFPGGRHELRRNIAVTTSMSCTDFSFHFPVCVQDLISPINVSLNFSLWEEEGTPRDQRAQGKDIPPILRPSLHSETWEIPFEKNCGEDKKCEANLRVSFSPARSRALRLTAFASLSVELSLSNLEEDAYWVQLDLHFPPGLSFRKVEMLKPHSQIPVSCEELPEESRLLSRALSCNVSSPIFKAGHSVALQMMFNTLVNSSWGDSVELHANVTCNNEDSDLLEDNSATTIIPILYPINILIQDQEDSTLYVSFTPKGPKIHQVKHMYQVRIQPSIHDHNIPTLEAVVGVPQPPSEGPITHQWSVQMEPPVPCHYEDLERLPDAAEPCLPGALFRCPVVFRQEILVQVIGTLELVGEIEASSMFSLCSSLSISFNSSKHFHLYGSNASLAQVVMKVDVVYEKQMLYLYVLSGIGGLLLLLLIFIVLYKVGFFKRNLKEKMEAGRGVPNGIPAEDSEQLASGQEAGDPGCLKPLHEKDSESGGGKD
Chain of Intercellular adhesion molecule (ICAM-1), Integrin alpha-L/beta-2 (P05362 whole entry): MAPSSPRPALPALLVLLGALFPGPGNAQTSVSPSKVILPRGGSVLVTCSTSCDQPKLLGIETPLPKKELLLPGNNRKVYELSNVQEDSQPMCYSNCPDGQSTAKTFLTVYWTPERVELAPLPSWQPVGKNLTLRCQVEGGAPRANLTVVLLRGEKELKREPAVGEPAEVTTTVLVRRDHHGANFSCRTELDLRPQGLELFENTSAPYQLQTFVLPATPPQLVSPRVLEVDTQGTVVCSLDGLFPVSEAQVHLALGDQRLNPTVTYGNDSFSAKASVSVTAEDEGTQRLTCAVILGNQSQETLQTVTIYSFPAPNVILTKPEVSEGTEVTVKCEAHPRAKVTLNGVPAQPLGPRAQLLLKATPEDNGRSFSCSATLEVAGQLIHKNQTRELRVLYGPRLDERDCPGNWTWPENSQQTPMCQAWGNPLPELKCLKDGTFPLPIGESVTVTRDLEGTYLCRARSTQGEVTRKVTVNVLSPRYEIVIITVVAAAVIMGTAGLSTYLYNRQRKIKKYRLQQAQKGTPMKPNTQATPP
Chain of Intercellular adhesion molecule (ICAM-1), Integrin alpha-L/beta-2 (P05107 whole entry): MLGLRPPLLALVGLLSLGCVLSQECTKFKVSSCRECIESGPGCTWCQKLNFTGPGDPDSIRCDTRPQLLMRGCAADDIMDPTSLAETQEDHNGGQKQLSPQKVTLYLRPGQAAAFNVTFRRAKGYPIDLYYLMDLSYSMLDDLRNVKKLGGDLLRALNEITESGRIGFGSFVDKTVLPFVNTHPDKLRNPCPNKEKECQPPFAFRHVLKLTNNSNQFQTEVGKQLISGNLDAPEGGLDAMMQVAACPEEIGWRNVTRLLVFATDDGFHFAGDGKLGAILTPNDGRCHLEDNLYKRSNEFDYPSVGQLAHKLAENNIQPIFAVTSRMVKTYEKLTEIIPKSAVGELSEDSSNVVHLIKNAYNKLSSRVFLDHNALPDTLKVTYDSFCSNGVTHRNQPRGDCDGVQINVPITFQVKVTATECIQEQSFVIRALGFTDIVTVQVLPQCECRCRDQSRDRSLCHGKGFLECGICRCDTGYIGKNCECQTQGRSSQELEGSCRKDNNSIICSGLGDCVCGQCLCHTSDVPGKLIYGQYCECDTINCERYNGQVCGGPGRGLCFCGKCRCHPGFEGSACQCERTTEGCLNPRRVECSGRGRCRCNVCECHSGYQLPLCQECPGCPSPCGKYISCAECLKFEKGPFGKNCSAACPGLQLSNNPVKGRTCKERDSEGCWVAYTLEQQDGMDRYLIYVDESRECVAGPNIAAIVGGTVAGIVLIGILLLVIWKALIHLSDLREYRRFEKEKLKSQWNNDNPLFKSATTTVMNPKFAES

Cc1cccc(C(=O)N2CCc3c(cc(Cl)c(C(=O)N[C@@H](CNC(=O)c4cccs4)C(=O)O)c3Cl)C2)c1
IC50 [1]: 90 nM

NC[C@H](NC(=O)c1c(Cl)cc2c(c1Cl)CCN(C(=O)c1ccc(Cl)cc1)C2)C(=O)O
IC50 [1]: > 1000 nM

CC(=O)N1CCc2c(cc(Cl)c(C(=O)N[C@@H](CNC(=O)c3cccs3)C(=O)O)c2Cl)C1
IC50 [1]: > 1000 nM

O=C(N[C@@H](CNC(=O)C1CCCCC1)C(=O)O)c1c(Cl)cc2c(c1Cl)CCN(C(=O)c1ccc(Cl)cc1)C2
IC50 [1]: 540 nM

O=C(NC[C@H](NC(=O)c1c(Cl)cc2c(c1Cl)CCN(C(=O)c1ccc3c(c1)OCC3)C2)C(=O)O)c1cccs1
half-life [2]: 1.1 h | IC50 [1]: 13 nM | AUC [3]: 4870 ng·h/mL | clearance [4]: 19 mL/min/kg

O=C(NC[C@H](NC(=O)c1c(Cl)cc2c(c1Cl)CCN(C(=O)C1CCCCC1)C2)C(=O)O)c1cccs1
IC50 [1]: > 1000 nM

O=C(N[C@@H](Cc1cccc(O)c1)C(=O)O)c1c(Cl)cc2c(c1Cl)CCN(C(=O)c1ccc(Cl)cc1)C2
IC50 [1]: > 1000 nM

O=C(NC[C@H](NC(=O)c1c(Cl)cc2c(c1Cl)CCN(C(=O)c1cc3ccccc3o1)C2)C(=O)O)c1cccs1
half-life [2]: 1.5 h | IC50 [1]: 5 nM | AUC [3]: 1260 ng·h/mL | clearance [4]: > 60 mL/min/kg

O=C(NC[C@H](NC(=O)c1c(Cl)cc2c(c1Cl)CCN(C(=O)c1cccc(Cl)c1)C2)C(=O)O)c1cccs1
half-life [2]: 1.1 h | IC50 [1]: 66 nM | AUC [3]: 120 ng·h/mL | clearance [4]: > 60 mL/min/kg

O=C(NC[C@H](NC(=O)c1c(Cl)cc2c(c1Cl)CCN(C(=O)c1ccc(Cl)cc1)C2)C(=O)O)c1ccccc1
half-life [2]: 0.7 h | IC50 [1]: 29 nM | AUC [3]: 487 ng·h/mL | clearance [4]: > 60 mL/min/kg

CC(=O)NC[C@H](NC(=O)c1c(Cl)cc2c(c1Cl)CCN(C(=O)c1ccc(Cl)cc1)C2)C(=O)O
IC50 [1]: 620 nM

O=C(N[C@@H](Cc1c[nH]c2ccccc12)C(=O)O)c1c(Cl)cc2c(c1Cl)CCN(C(=O)c1ccc(Cl)cc1)C2
IC50 [1]: 810 nM

Cc1ccccc1C(=O)N1CCc2c(cc(Cl)c(C(=O)N[C@@H](CNC(=O)c3cccs3)C(=O)O)c2Cl)C1
IC50 [1]: 460 nM

Cc1ccc(C(=O)N2CCc3c(cc(Cl)c(C(=O)N[C@@H](CNC(=O)c4cccs4)C(=O)O)c3Cl)C2)cc1
IC50 [1]: 10 nM

O=C(NC[C@H](NC(=O)c1c(Cl)cc2c(c1Cl)CCN(C(=O)c1ccccc1)C2)C(=O)O)c1cccs1
IC50 [1]: 79 nM

CCOC(=O)[C@H](CNC(=O)c1cccs1)NC(=O)c1c(Cl)cc2c(c1Cl)CCN(C(=O)c1ccc3ccoc3c1)C2
half-life [2]: 2.8 h | bioavailability [5]: 31% | Cmax [6]: 8460 ng/mL | AUC(0-t) [7]: 31900 ng·h/mL | Tmax [8]: 1 h | AUC(0-t) [9]: 5540 ng·h/mL | bioavailability [10]: 27% | Cmax [11]: 2120 ng/mL | Tmax [12]: 0.8 h | bioavailability [13]: 18% | AUC(0-t) [14]: 13900 ng·h/mL | Tmax [15]: 0.8 h | Cmax [16]: 3400 ng/mL | AUC [3]: 16800 ng·h/mL | clearance [4]: 5 mL/min/kg | Papp A→B [17]: 8.5 ×10⁻⁶ cm/s | Papp B→A [18]: 10 ×10⁻⁶ cm/s | Activity (Mus musculus [19]): Dose-dependent effect | ED50 (Mus musculus [19]; C57BL/6, po): 6.4 mg/kg

O=C(NC[C@H](NC(=O)c1c(Cl)cc2c(c1Cl)CCN(C(=O)c1ccc(Cl)cc1)C2)C(=O)O)c1ccco1
IC50 [1]: 51 nM

O=C(NC[C@H](NC(=O)c1c(Cl)cc2c(c1Cl)CCN(C(=O)c1ccc(Cl)cc1)C2)C(=O)O)c1cccs1
half-life [2]: 1.4 h | IC50 [1]: 22 nM | AUC [3]: 580 ng·h/mL | clearance [4]: 31 mL/min/kg

O=C(NC[C@H](NC(=O)c1c(Cl)cc2c(c1Cl)CCN(C(=O)c1ccc3ccoc3c1)C2)C(=O)O)c1cccs1
half-life [2]: 3 h | IC50 [1]: 9 nM | AUC [3]: 5500 ng·h/mL | clearance [4]: 3.2 mL/min/kg | Papp A→B [17]: 0.34 ×10⁻⁶ cm/s | Papp B→A [18]: 0.3 ×10⁻⁶ cm/s | Activity (Mus musculus [20]): Dose-dependent effect | ED50 (Mus musculus [20]; C57BL/6, iv): 0.038 mg/kg

O=C(NC[C@H](NC(=O)c1c(Cl)cc2c(c1Cl)CCN(C(=O)/C=C/c1ccco1)C2)C(=O)O)c1cccs1
IC50 [1]: 25 nM
